Test results as given in ChEMBL document CHEMBL3608278 (J Med Chem, 2015).
pIC50: −log10 of the molar value. Bridge positions count the residues as written; N and C are the ends. Square brackets hold non-standard residues; d marks the D form. Peptide text beside a SMILES is read from it. 1Nal = N[C@@H](Cc1cccc2ccccc12)C(=O)O

What was measured:
[1] = Half life in rat; format: ADME, organism-based; conditions: in vivo
[2] = target: T1, Potassium voltage-gated channel subfamily A member 3 (Homo sapiens, UniProt P22001); set-up: species or system Blood
[3] = target: T1, Potassium voltage-gated channel subfamily A member 3; experiment: cell-based; set-up: species or system Blood
[4] = target: T1, Potassium voltage-gated channel subfamily A member 3; format: cell-based, CHO-K1

T1 sequence (P22001 whole entry): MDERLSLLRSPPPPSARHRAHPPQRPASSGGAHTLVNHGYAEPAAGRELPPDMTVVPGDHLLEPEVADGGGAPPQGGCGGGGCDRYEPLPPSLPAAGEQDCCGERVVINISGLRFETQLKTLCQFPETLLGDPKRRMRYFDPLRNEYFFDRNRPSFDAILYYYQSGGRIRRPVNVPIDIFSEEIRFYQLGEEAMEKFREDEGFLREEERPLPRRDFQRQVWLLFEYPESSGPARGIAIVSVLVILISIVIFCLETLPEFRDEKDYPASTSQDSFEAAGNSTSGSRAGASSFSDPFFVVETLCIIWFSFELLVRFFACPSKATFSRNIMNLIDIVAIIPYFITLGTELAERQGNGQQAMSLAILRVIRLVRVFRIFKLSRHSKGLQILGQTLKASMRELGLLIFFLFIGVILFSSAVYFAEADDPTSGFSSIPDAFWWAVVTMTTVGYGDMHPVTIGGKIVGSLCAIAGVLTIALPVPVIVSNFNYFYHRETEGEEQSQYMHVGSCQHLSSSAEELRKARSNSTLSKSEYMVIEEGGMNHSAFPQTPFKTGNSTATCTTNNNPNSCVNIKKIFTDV

Row | Compound | pIC50 [2] | pIC50 [3] | pIC50 [4] | half-life [1] [min]
1 | CC[C@H](C)[C@@H]1NC(=O)[C@@H](NC(=O)[C@H](CO)NC(=O)[C@@H](N)CCCNC(=N)N)CSSC[C@@H](C(=O)O)NC(=O)[C@H]([C@@H](C)O)NC(=O)CNC(=O)[C@@H]2CSSC[C@@H]3NC(=O)[C@H](CCC(N)=O)NC(=O)[C@H](Cc4ccccc4)NC(=O)[C@H](C)NC(=O)[C@H]([C@@H](C)O)NC(=O)[C@H](CSSC[C@H](NC(=O)[C@H](Cc4ccccc4)NC(=O)[C@H](CO)NC(=O)[C@H](CC(C)C)NC(=O)[C@H](CCCNC(=N)N)NC(=O)[C@H](Cc4ccc(O)cc4)NC(=O)[C@H](CCCCN)NC(=O)[C@H](CCSC)NC(=O)[C@H](CO)NC(=O)[C@H](Cc4cnc[nH]4)NC(=O)[C@H](CCCCN)NC3=O)C(=O)N[C@@H](CCCNC(=N)N)C(=O)N[C@@H](CCCCN)C(=O)N[C@@H]([C@@H](C)O)C(=O)N2)NC(=O)[C@H](CCCNC(=N)N)NC(=O)[C@H](CO)NC(=O)[C@H](CCCCN)NC(=O)[C@@H]2CCCN2C(=O)[C@H]([C@@H](C)CC)NC(=O)[C@H]([C@@H](C)O)NC(=O)[C@H](CC(=O)O)NC1=O |  |  |  | 20
2 | CC[C@H](C)[C@@H]1NC(=O)[C@@H](NC(=O)[C@H](CO)NC(=O)[C@@H](N)CCCNC(=N)N)CSSC[C@@H](C(=O)O)NC(=O)[C@H]([C@@H](C)O)NC(=O)CNC(=O)[C@@H]2CSSC[C@@H]3NC(=O)[C@H](CCC(N)=O)NC(=O)[C@H](CCCCN)NC(=O)[C@H](C)NC(=O)[C@H]([C@@H](C)O)NC(=O)[C@H](CSSC[C@H](NC(=O)[C@H](Cc4ccccc4)NC(=O)[C@H](CO)NC(=O)[C@H](CC(C)C)NC(=O)[C@H](CCCNC(=N)N)NC(=O)[C@H](Cc4ccc(O)cc4)NC(=O)[C@H](CCCCN)NC(=O)[C@H](CCSC)NC(=O)[C@H](CO)NC(=O)[C@H](C)NC(=O)[C@H](CCCCN)NC3=O)C(=O)N[C@@H](CCCNC(=N)N)C(=O)N[C@@H](CCCCN)C(=O)N[C@@H]([C@@H](C)O)C(=O)N2)NC(=O)[C@H](CCCNC(=N)N)NC(=O)[C@H](CO)NC(=O)[C@H](CCCCN)NC(=O)[C@@H]2CCCN2C(=O)[C@H]([C@@H](C)CC)NC(=O)[C@H]([C@@H](C)O)NC(=O)[C@H](CC(=O)O)NC1=O (H-RSCIDTIPKSRCTAKQCKASMKYRLSFCRKTCGTC-OH; disulfide 3-35, 12-28, 17-32) | 9.00 | 9.33 | 9.53 | 
3 | CC[C@H](C)[C@@H]1NC(=O)[C@@H](NC(=O)[C@H](CO)NC(=O)[C@@H](N)CCCNC(=N)N)CSSC[C@@H](C(=O)O)NC(=O)[C@H]([C@@H](C)O)NC(=O)CNC(=O)[C@@H]2CSSC[C@@H]3NC(=O)[C@H](CCC(N)=O)NC(=O)[C@H](Cc4ccccc4)NC(=O)[C@H](CCC(=O)O)NC(=O)[C@H]([C@@H](C)O)NC(=O)[C@H](CSSC[C@H](NC(=O)[C@H](Cc4ccccc4)NC(=O)[C@H](CO)NC(=O)[C@H](CC(C)C)NC(=O)[C@H](CCCNC(=N)N)NC(=O)[C@H](Cc4ccc(O)cc4)NC(=O)[C@H](CCCCN)NC(=O)[C@H](CCSC)NC(=O)[C@H](CO)NC(=O)[C@H](Cc4cnc[nH]4)NC(=O)[C@H](CCCCN)NC3=O)C(=O)N[C@@H](CCCNC(=N)N)C(=O)N[C@@H](CCCCN)C(=O)N[C@@H]([C@@H](C)O)C(=O)N2)NC(=O)[C@H](CCCNC(=N)N)NC(=O)[C@H](CO)NC(=O)[C@H](CCCCN)NC(=O)[C@@H]2CCCN2C(=O)[C@H]([C@@H](C)CC)NC(=O)[C@H]([C@@H](C)O)NC(=O)[C@H](Cc2cccc3ccccc23)NC1=O (H-RSCI[1Nal]TIPKSRCTEFQCKHSMKYRLSFCRKTCGTC-OH; disulfide 3-35, 12-28, 17-32) | 9.88 | 10.44 | 9.96 | 

Further lines, with some results ahead:

Row | pIC50 [2] | pIC50 [3] | pIC50 [4] | Compound | half-life [1] [min]
4 | 9.54 | 9.74 | 10.14 | CC[C@H](C)[C@@H]1NC(=O)[C@@H](NC(=O)[C@H](CO)NC(=O)[C@@H](N)CCCNC(=N)N)CSSC[C@@H](C(=O)O)NC(=O)[C@H]([C@@H](C)O)NC(=O)CNC(=O)[C@@H]2CSSC[C@@H]3NC(=O)[C@H](CCC(N)=O)NC(=O)[C@H](Cc4cccc5ccccc45)NC(=O)[C@H](C)NC(=O)[C@H]([C@@H](C)O)NC(=O)[C@H](CSSC[C@H](NC(=O)[C@H](Cc4ccccc4)NC(=O)[C@H](CO)NC(=O)[C@H](CC(C)C)NC(=O)[C@H](CCCNC(=N)N)NC(=O)[C@H](Cc4ccc(O)cc4)NC(=O)[C@H](CCCCN)NC(=O)[C@H](CCSC)NC(=O)[C@H](CO)NC(=O)[C@H](C)NC(=O)[C@H](CCCCN)NC3=O)C(=O)N[C@@H](CCCNC(=N)N)C(=O)N[C@@H](CCCCN)C(=O)N[C@@H]([C@@H](C)O)C(=O)N2)NC(=O)[C@H](CCCNC(=N)N)NC(=O)[C@H](CO)NC(=O)[C@H](CCCCN)NC(=O)[C@@H]2CCCN2C(=O)[C@H]([C@@H](C)CC)NC(=O)[C@H]([C@@H](C)O)NC(=O)[C@H](CC(=O)O)NC1=O (H-RSCIDTIPKSRCTA[1Nal]QCKASMKYRLSFCRKTCGTC-OH; disulfide 3-35, 12-28, 17-32) | 
5 | 9.70 | 10.12 | 10.14 | CC[C@H](C)[C@@H]1NC(=O)[C@@H](NC(=O)[C@H](CO)NC(=O)[C@@H](N)CCCNC(=N)N)CSSC[C@@H](C(=O)O)NC(=O)[C@H]([C@@H](C)O)NC(=O)CNC(=O)[C@@H]2CSSC[C@@H]3NC(=O)[C@H](CCC(N)=O)NC(=O)[C@H](Cc4ccccc4)NC(=O)[C@H](CCCCN)NC(=O)[C@H]([C@@H](C)O)NC(=O)[C@H](CSSC[C@H](NC(=O)[C@H](Cc4ccccc4)NC(=O)[C@H](CO)NC(=O)[C@H](CC(C)C)NC(=O)[C@H](CCCNC(=N)N)NC(=O)[C@H](Cc4ccc(O)cc4)NC(=O)[C@H](CCCCN)NC(=O)[C@H](CCSC)NC(=O)[C@H](CO)NC(=O)[C@H](Cc4cnc[nH]4)NC(=O)[C@H](CCCCN)NC3=O)C(=O)N[C@@H](CCCNC(=N)N)C(=O)N[C@@H](CCCCN)C(=O)N[C@@H]([C@@H](C)O)C(=O)N2)NC(=O)[C@H](CCCNC(=N)N)NC(=O)[C@H](CO)NC(=O)[C@H](CCCCN)NC(=O)[C@@H]2CCCN2C(=O)[C@H]([C@@H](C)CC)NC(=O)[C@H]([C@@H](C)O)NC(=O)[C@H](Cc2cccc3ccccc23)NC1=O (H-RSCI[1Nal]TIPKSRCTKFQCKHSMKYRLSFCRKTCGTC-OH; disulfide 3-35, 12-28, 17-32) | 
6 | 9.96 | 10.05 | 10.41 | CC[C@H](C)[C@@H]1NC(=O)[C@@H](NC(=O)[C@H](CO)NC(=O)[C@@H](N)CCCNC(=N)N)CSSC[C@@H](C(=O)O)NC(=O)[C@H]([C@@H](C)O)NC(=O)CNC(=O)[C@@H]2CSSC[C@@H]3NC(=O)[C@H](CCC(N)=O)NC(=O)[C@H](Cc4ccccc4)NC(=O)[C@H](Cc4cccc5ccccc45)NC(=O)[C@H]([C@@H](C)O)NC(=O)[C@H](CSSC[C@H](NC(=O)[C@H](Cc4ccccc4)NC(=O)[C@H](CO)NC(=O)[C@H](CC(C)C)NC(=O)[C@H](CCCNC(=N)N)NC(=O)[C@H](Cc4ccc(O)cc4)NC(=O)[C@H](CCCCN)NC(=O)[C@H](CCSC)NC(=O)[C@H](CO)NC(=O)[C@H](Cc4cnc[nH]4)NC(=O)[C@H](CCCCN)NC3=O)C(=O)N[C@@H](CCCNC(=N)N)C(=O)N[C@@H](CCCCN)C(=O)N[C@@H]([C@@H](C)O)C(=O)N2)NC(=O)[C@H](CCCNC(=N)N)NC(=O)[C@H](CO)NC(=O)[C@H](CCCCN)NC(=O)[C@@H]2CCCN2C(=O)[C@H]([C@@H](C)CC)NC(=O)[C@H]([C@@H](C)O)NC(=O)[C@H](Cc2cccc3ccccc23)NC1=O (H-RSCI[1Nal]TIPKSRCT[1Nal]FQCKHSMKYRLSFCRKTCGTC-OH; disulfide 3-35, 12-28, 17-32) | 
